Experimental data from patent US7754896B2, “Indol-alanine derivatives as selective S1P4-agonists” (Novartis AG, priority 2004, dated 2010).
pEC50: −log10 of the molar value.

How the values were obtained:
S1P1 = target: T1, S1P1 (Homo sapiens, UniProt P21453); assay: Calcium mobilization assay, CHO cells expressing S1P1; format: cell-based
T1 construct: expressed in transfected cells
From the text: (§1) Human S1P1 (GenBank™ accession number M31210) and S1P3 (GenBank™ accession number X83864) cDNA containing the myc sequence in front to the human S1P1 and S1P3 sequences are inserted in the pcDNA 3.1 vector. The vectors are sequenced to completion to confirm the correctness of the construct. The human S1P2 (GI: 4090955, TREMBL: 0195136) is cloned by a PCR based method. Lung cDNA (marathon cDNA) is obtained (BD Biosciences Chontech, Palo Alto, Calif. 94303, USA). […] The amplified product of around 1100 bp is analyzed by standard agarose gel-electrophoresis. […]
(§2) CHO cells are plated in black Costar plate (96 or 384 well, 50,000 cells or 12,500 cells, respectively) in a MEM with FCS and cultured for 20-24 h at 37° C. in a CO2 incubator. […] After measuring the baseline for 40 sec, the agonist in HBSS is added and the fluorescence is measured at intervals of 2 sec for 3 to 5 min. […]
(§3) The compounds mentioned in this application are tested for specificity, e.g. the activity they have in the parental cell line prior transformation with the S1P4 cDNA and for selectivity on CHO cells lines transformed with the S1P1, S1P2, S1P3, and S1P5. […] For example, S1P4 specific and selective compounds may have an EC50 (apparent EC50) measured at S1P4 that is 10×, preferably 100× lower that that measured in wild type CHO cells or In cell expressing any of the other four S1P receptors.

S1P2 = target: T2, S1P2 (Homo sapiens, UniProt O95136); assay: Calcium mobilization assay, CHO cells expressing S1P2; format: cell-based
T2 construct: expressed in transfected cells
T2 sequence (O95136 whole entry): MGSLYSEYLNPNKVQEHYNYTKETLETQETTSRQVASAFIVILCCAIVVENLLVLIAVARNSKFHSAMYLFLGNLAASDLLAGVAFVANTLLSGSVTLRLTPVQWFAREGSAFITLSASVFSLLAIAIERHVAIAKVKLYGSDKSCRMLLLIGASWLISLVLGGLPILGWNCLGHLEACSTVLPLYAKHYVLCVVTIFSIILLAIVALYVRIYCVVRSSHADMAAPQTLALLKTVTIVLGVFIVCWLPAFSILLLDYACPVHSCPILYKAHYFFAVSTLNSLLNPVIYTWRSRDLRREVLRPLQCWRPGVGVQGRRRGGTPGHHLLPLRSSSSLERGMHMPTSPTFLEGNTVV
From the text: as §1, §2, §3

S1P3 = target: T3, S1P3 (Homo sapiens, UniProt Q99500); assay: GTPγS binding assay, S1P3; format: biochemical; details: CHO cells expressing S1P3
T3 construct: expressed in transfected cells
T3 sequence (Q99500 whole entry): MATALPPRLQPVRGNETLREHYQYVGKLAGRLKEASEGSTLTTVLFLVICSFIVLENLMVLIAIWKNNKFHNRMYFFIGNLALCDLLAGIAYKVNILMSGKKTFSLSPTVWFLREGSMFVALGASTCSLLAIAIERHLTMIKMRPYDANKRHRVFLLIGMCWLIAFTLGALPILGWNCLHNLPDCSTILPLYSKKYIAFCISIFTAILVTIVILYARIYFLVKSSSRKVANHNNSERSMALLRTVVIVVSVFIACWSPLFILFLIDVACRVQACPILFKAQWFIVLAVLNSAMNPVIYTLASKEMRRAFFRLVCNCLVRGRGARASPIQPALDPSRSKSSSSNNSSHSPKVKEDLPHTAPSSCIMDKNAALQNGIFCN
From the text: as §1, with “USA). Following oligonucleotides are used for the PCR reaction: forward primer CACCATGGGCAGCTTGTACTCGGAGTACCT GM CCC CAA CM GGT CCA G (1 to 45, GenBank™ accession number AF034780) and reverse primer 5′-GATTCAGACCACCGTGTTGCCCTCCAG (1062 to 1039, GenBank™ accession number AF034780), the initiation of the translation (ATG) and the stop codon are underlined.” for “USA).”
Membrane proteins are prepared from wild type CHO-K1 and the CHO cell clones expressing human S1P4. […] The protein concentration is determined using the Bio Rad Protein Assay and human IgG as standard. […]

T1 sequence (P21453 whole entry): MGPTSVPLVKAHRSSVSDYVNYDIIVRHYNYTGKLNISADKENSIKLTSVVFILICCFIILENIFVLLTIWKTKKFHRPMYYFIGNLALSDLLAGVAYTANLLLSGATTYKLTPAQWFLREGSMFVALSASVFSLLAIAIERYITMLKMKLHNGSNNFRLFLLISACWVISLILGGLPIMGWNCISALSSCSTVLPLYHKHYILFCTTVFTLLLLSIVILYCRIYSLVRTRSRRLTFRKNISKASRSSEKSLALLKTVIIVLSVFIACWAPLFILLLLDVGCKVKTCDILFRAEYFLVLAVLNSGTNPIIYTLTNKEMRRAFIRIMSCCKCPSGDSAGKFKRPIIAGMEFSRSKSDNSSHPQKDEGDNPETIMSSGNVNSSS

## NC(CNC(=O)c1cc2c(-c3ccccc3Cc3ccccc3)cccc2[nH]1)C(=O)O (stereo not drawn) [Example 2]
S1P1
  pEC50: < 5.22
S1P2
  pEC50: < 5.22
S1P3
  pEC50: < 5.00
